Measured values from ChEMBL document CHEMBL1153107, “A highly atom economic, chemo-, regio- and stereoselective synthesis and evaluation of spiro-pyrrolothiazoles as antitubercular agents” (2010).
≈ marks a conversion by molar mass, not a printed value.

Tested on: Mycobacterium tuberculosis
Assay: Antitubercular activity against Mycobacterium tuberculosis
Type: functional

Row | Compound | MIC
1 | CN1C/C(=C\c2ccc(Br)cc2)C(=O)[C@]2(C1)[C@H](c1ccc(Br)cc1)[C@@H]1CSCN1[C@@]21C(=O)Nc2ccccc21 | 4.7 µM (≈ 3.13 µg/mL)
2 | CN1C/C(=C\c2ccccc2)C(=O)[C@]2(C1)[C@H](c1ccccc1)[C@@H]1CSCN1[C@@]21C(=O)Nc2ccccc21 | 49.2 µM (≈ 25 µg/mL)
3 | CN1C/C(=C\c2ccc(Br)cc2)C(=O)[C@]2(C1)[C@H](c1ccc(Br)cc1)[C@@H]1CSCN1[C@@]21C(=O)Nc2ccc(Cl)cc21 | 4.4 µM (≈ 3.08 µg/mL)
4 | CC(C)c1ccc(/C=C2\CN(C)C[C@@]3(C2=O)[C@H](c2ccc(C(C)C)cc2)[C@@H]2CSCN2[C@@]32C(=O)Nc3ccccc32)cc1 | 10.6 µM (≈ 6.27 µg/mL)
5 | COc1ccccc1/C=C1\CN(C)C[C@@]2(C1=O)[C@H](c1ccccc1OC)[C@@H]1CSCN1[C@@]21C(=O)Nc2ccccc21 | 22 µM (≈ 12.5 µg/mL)
6 | COc1ccc(/C=C2\CN(C)C[C@@]3(C2=O)[C@H](c2ccc(OC)cc2OC)[C@@H]2CSCN2[C@@]32C(=O)Nc3ccccc32)c(OC)c1 | 19.9 µM (≈ 12.5 µg/mL)
7 | CN1C/C(=C\c2ccc(Cl)cc2Cl)C(=O)[C@]2(C1)[C@H](c1ccc(Cl)cc1Cl)[C@@H]1CSCN1[C@@]21C(=O)Nc2ccc(Cl)cc21 | 1.2 µM (≈ 0.816 µg/mL)
8 | Cc1ccc(/C=C2\CN(C)C[C@@]3(C2=O)[C@H](c2ccc(C)cc2)[C@@H]2CSCN2[C@@]32C(=O)Nc3ccc([N+](=O)[O-])cc32)cc1 | 5.3 µM (≈ 3.08 µg/mL)
9 | CN1C/C(=C\c2ccc(Cl)cc2Cl)C(=O)[C@]2(C1)[C@H](c1ccc(Cl)cc1Cl)[C@@H]1CSCN1[C@@]21C(=O)Nc2ccc([N+](=O)[O-])cc21 | 0.6 µM (≈ 0.414 µg/mL)
10 | COc1ccc(/C=C2\CN(C)C[C@@]3(C2=O)[C@H](c2ccc(OC)cc2OC)[C@@H]2CSCN2[C@@]32C(=O)Nc3ccc([N+](=O)[O-])cc32)c(OC)c1 | 9.4 µM (≈ 6.32 µg/mL)
11 | CN1C/C(=C\c2ccccc2Cl)C(=O)[C@]2(C1)[C@H](c1ccccc1Cl)[C@@H]1CSCN1[C@@]21C(=O)Nc2ccccc21 | 10.9 µM (≈ 6.28 µg/mL)
12 | CN1C/C(=C\c2ccc(F)cc2)C(=O)[C@]2(C1)[C@H](c1ccc(F)cc1)[C@@H]1CSCN1[C@@]21C(=O)Nc2ccccc21 | 5.7 µM (≈ 3.1 µg/mL)
13 | Cc1ccccc1/C=C1\CN(C)C[C@@]2(C1=O)[C@H](c1ccccc1C)[C@@H]1CSCN1[C@@]21C(=O)Nc2ccccc21 | 23.3 µM (≈ 12.5 µg/mL)
14 | Cc1ccc(/C=C2\CN(C)C[C@@]3(C2=O)[C@H](c2ccc(C)cc2)[C@@H]2CSCN2[C@@]32C(=O)Nc3ccccc32)cc1 | 23.3 µM (≈ 12.5 µg/mL)
15 | CN1C/C(=C\c2ccc(Cl)cc2)C(=O)[C@]2(C1)[C@H](c1ccc(Cl)cc1)[C@@H]1CSCN1[C@@]21C(=O)Nc2ccccc21 | 5.4 µM (≈ 3.11 µg/mL)
16 | CN1C/C(=C\c2ccccc2)C(=O)[C@]2(C1)[C@H](c1ccccc1)[C@@H]1CSCN1[C@@]21C(=O)Nc2ccc(Cl)cc21 | 23.1 µM (≈ 12.5 µg/mL)
17 | COc1ccc(/C=C2\CN(C)C[C@@]3(C2=O)[C@H](c2ccc(OC)cc2OC)[C@@H]2CSCN2[C@@]32C(=O)Nc3ccc(Cl)cc32)c(OC)c1 | 18.9 µM (≈ 12.5 µg/mL)
18 | CN1C/C(=C\c2ccccc2-c2cccs2)C(=O)[C@]2(C1)[C@H](c1ccccc1-c1cccs1)[C@@H]1CSCN1[C@@]21C(=O)Nc2ccc(Cl)cc21 | 11.4 µM (≈ 8.05 µg/mL)
19 | CN1C/C(=C\c2ccccc2)C(=O)[C@]2(C1)[C@H](c1ccccc1)[C@@H]1CSCN1[C@@]21C(=O)Nc2ccc([N+](=O)[O-])cc21 | 5.6 µM (≈ 3.09 µg/mL)
20 | CN1C/C(=C\c2ccc(Cl)cc2)C(=O)[C@]2(C1)[C@H](c1ccc(Cl)cc1)[C@@H]1CSCN1[C@@]21C(=O)Nc2ccc([N+](=O)[O-])cc21 | 1.3 µM (≈ 0.808 µg/mL)
21 | COc1ccc(/C=C2\CN(C)C[C@@]3(C2=O)[C@H](c2ccc(OC)cc2)[C@@H]2CSCN2[C@@]32C(=O)Nc3ccc([N+](=O)[O-])cc32)cc1 | 10.3 µM (≈ 6.31 µg/mL)

Row | Compound | MIC
22 | CN1C/C(=C\c2ccc(F)cc2)C(=O)[C@]2(C1)[C@H](c1ccc(F)cc1)[C@@H]1CSCN1[C@@]21C(=O)Nc2ccc([N+](=O)[O-])cc21 | 1.4 µM (≈ 0.824 µg/mL)
23 | CN1C/C(=C\c2ccc(Br)cc2)C(=O)[C@]2(C1)[C@H](c1ccc(Br)cc1)[C@@H]1CSCN1[C@@]21C(=O)Nc2ccc([N+](=O)[O-])cc21 | 1.1 µM (≈ 0.781 µg/mL)
24 | CN1C/C(=C\c2ccc(Cl)cc2Cl)C(=O)[C@]2(C1)[C@H](c1ccc(Cl)cc1Cl)[C@@H]1CSCN1[C@@]21C(=O)Nc2ccccc21 | 4.7 µM (≈ 3.03 µg/mL)
25 | CN1C/C(=C\c2ccccc2-c2cccs2)C(=O)[C@]2(C1)[C@H](c1ccccc1-c1cccs1)[C@@H]1CSCN1[C@@]21C(=O)Nc2ccccc21 | 12.1 µM (≈ 8.13 µg/mL)
26 | CN1C/C(=C\c2ccccc2Cl)C(=O)[C@]2(C1)[C@H](c1ccccc1Cl)[C@@H]1CSCN1[C@@]21C(=O)Nc2ccc([N+](=O)[O-])cc21 | 2.6 µM (≈ 1.62 µg/mL)
27 | Cc1ccccc1/C=C1\CN(C)C[C@@]2(C1=O)[C@H](c1ccccc1C)[C@@H]1CSCN1[C@@]21C(=O)Nc2ccc([N+](=O)[O-])cc21 | 5.3 µM (≈ 3.08 µg/mL)
28 | COc1ccccc1/C=C1\CN(C)C[C@@]2(C1=O)[C@H](c1ccccc1OC)[C@@H]1CSCN1[C@@]21C(=O)Nc2ccc([N+](=O)[O-])cc21 | 5.1 µM (≈ 3.12 µg/mL)
29 | CN1C/C(=C\c2ccccc2-c2cccs2)C(=O)[C@]2(C1)[C@H](c1ccccc1-c1cccs1)[C@@H]1CSCN1[C@@]21C(=O)Nc2ccc([N+](=O)[O-])cc21 | 5.5 µM (≈ 3.94 µg/mL)
30 | COc1ccc(/C=C2\CN(C)C[C@@]3(C2=O)[C@H](c2ccc(OC)cc2)[C@@H]2CSCN2[C@@]32C(=O)Nc3ccccc32)cc1 | 22 µM (≈ 12.5 µg/mL)
31 | CN1C/C(=C\c2ccc(Cl)cc2)C(=O)[C@]2(C1)[C@H](c1ccc(Cl)cc1)[C@@H]1CSCN1[C@@]21C(=O)Nc2ccc(Cl)cc21 | 5.1 µM (≈ 3.12 µg/mL)
32 | Cc1ccc(/C=C2\CN(C)C[C@@]3(C2=O)[C@H](c2ccc(C)cc2)[C@@H]2CSCN2[C@@]32C(=O)Nc3ccc(Cl)cc32)cc1 | 11 µM (≈ 6.27 µg/mL)
33 | COc1ccc(/C=C2\CN(C)C[C@@]3(C2=O)[C@H](c2ccc(OC)cc2)[C@@H]2CSCN2[C@@]32C(=O)Nc3ccc(Cl)cc32)cc1 | 20.8 µM (≈ 12.5 µg/mL)
34 | CN1C/C(=C\c2ccc(F)cc2)C(=O)[C@]2(C1)[C@H](c1ccc(F)cc1)[C@@H]1CSCN1[C@@]21C(=O)Nc2ccc(Cl)cc21 | 2.8 µM (≈ 1.62 µg/mL)
35 | CC(C)c1ccc(/C=C2\CN(C)C[C@@]3(C2=O)[C@H](c2ccc(C(C)C)cc2)[C@@H]2CSCN2[C@@]32C(=O)Nc3ccc(Cl)cc32)cc1 | 10.1 µM (≈ 6.33 µg/mL)
36 | CN1C/C(=C\c2ccccc2Cl)C(=O)[C@]2(C1)[C@H](c1ccccc1Cl)[C@@H]1CSCN1[C@@]21C(=O)Nc2ccc(Cl)cc21 | 5.1 µM (≈ 3.12 µg/mL)
37 | Cc1ccccc1/C=C1\CN(C)C[C@@]2(C1=O)[C@H](c1ccccc1C)[C@@H]1CSCN1[C@@]21C(=O)Nc2ccc(Cl)cc21 | 11 µM (≈ 6.27 µg/mL)
38 | COc1ccccc1/C=C1\CN(C)C[C@@]2(C1=O)[C@H](c1ccccc1OC)[C@@H]1CSCN1[C@@]21C(=O)Nc2ccc(Cl)cc21 | 20.8 µM (≈ 12.5 µg/mL)
39 | CC[C@@H](CO)NCCN[C@@H](CC)CO [ETHAMBUTOL] | 7.6 µM (≈ 1.55 µg/mL)
40 | NNC(=O)c1ccncc1 [ISONIAZID] | 0.4 µM (≈ 0.0549 µg/mL)
41 | NC(=O)c1cnccn1 [PYRAZINAMIDE] | 50.8 µM (≈ 6.25 µg/mL)
42 | CO[C@H]1/C=C/O[C@@]2(C)Oc3c(C)c(O)c4c(O)c(c(/C=N/N5CCN(C)CC5)c(O)c4c3C2=O)NC(=O)/C(C)=C\C=C\[C@H](C)[C@H](O)[C@@H](C)[C@@H](O)[C@@H](C)[C@H](OC(C)=O)[C@@H]1C [RIFAMPIN] | 0.1 µM (≈ 0.0823 µg/mL)
